Measured values published in article PMC5920688 (Journal of veterinary pharmacology and therapeutics, 2017).
Entries after “also recorded” stand apart in the source; their conditions may differ. Blank lines part the entries; values can stand above or below the compound they belong to.

What was measured:
[1] = tested on: horses; settings: clinical cases, ref Johnson et al., 1993, Raekallio et al., 1997; cited from earlier work
[2] = tested on: horses; settings: 4 mg/kg i.v., ref Toutain et al., 1994; cited from earlier work
[3] = tested on: equine soluble epoxide hydrolase (sEH); settings: ref Guedes et al., 2016, cited from earlier work
[4] = tested on: horses with lipopolysaccharide-induced radiocarpal synovitis; type: in vivo
[5] = Synovial fluid t-TUCB concentrations after intravenous administration; type: in vivo; settings: horses, i.v., 1 mg/kg
[6] = tested on: horses; assay: Physical exam variables, hematology and serum biochemistry; type: in vivo
[7] = tested on: rats; settings: doses as low as 0.1 mg/kg, ref Wagner et al., 2013; cited from earlier work
[8] = tested on: horses with lipopolysaccharide-induced radiocarpal synovitis; assay: Pain; type: in vivo; settings: for Horses qualifying for rescue analgesia if only VAS > 50 at rest had been used: control 5/6; for Proportion of positive-to-negative responses to touch (tactile allodynia): control 1.7; for AUC of AAEP lameness scores compared to control / AUC of visual analog pain scores compared to control: first 12 h and entire 48 h
[9] = Plasma pharmacokinetics of t-TUCB after intravenous administration; type: in vivo, horses; settings: for AUClast (h*ng/mL)/dose: dose-corrected; for AUClast (h*ng/mL)/dose / Clast (last measured plasma concentration) / Tlast (time of last measured plasma concentration) / λz lower / λz upper: mean ± SEM; for Plasma kinetics (order): preliminary
[10] = Thoroughbred, Quarter Horse, Dutch Warmblood (mixed group), plasma, iv, 1 mg/kg
[11] = Thoroughbred, Quarter Horse, Dutch Warmblood, plasma, iv, 0.1 mg/kg
[12] = Thoroughbred, Quarter Horse, Dutch Warmblood, plasma, iv, 0.3 mg/kg
[13] = horses, i.v., 0.1 mg/kg, plasma
[14] = horses, i.v., 0.3 mg/kg, plasma

Compound: CCCCC1C(=O)N(c2ccccc2)N(c2ccccc2)C1=O [phenylbutazone]
Duration of post-surgical analgesia [1]: < 12 h | Analgesic effects in carpal Freund's adjuvant arthritis model [2]: not readily demonstrated; also recorded: could not be demonstrated

Synovial fluid concentrations reached [5]: high concentrations | Synovial fluid t-TUCB concentration, inflamed compared to non-inflamed joint [5]: significantly higher | Vd [9, 10]: 0.571 ± 0.104 L/kg | clearance [9, 10]: 0.014 L/h/kg | half-life [9, 10]: 24 ± 5 h | AUC(0-inf) [9, 11]: 2 ± 0.53 µg·h/mL | AUC(0-t) [9, 11]: 1.61 ± 0.36 µg·h/mL | AUC(0-inf) [9, 12]: 6.37 ± 0.526 µg·h/mL | AUC(0-t) [9, 12]: 5.84 ± 0.488 µg·h/mL | AUC(0-t) ([9]; Thoroughbred, Quarter Horse, Dutch Warmblood, plasma, iv, 1 mg/kg): 50.1 ± 5.6 µg·h/mL | AUClast (h*ng/mL)/dose ([9]; horses, i.v., 0.1 mg/kg): 16066±3595^a h*ng/mL | AUClast (h*ng/mL)/dose ([9]; horses, i.v., 0.3 mg/kg): 19467±1625^a h*ng/mL | AUClast (h*ng/mL)/dose ([9]; horses, i.v., 1 mg/kg): 50139±5604^b h*ng/mL | Plasma concentrations ([9]; horses, i.v., 0.03 mg/kg): undetectable or very low | Clast (last measured plasma concentration) [9, 13]: 0.017 ± 0.005 µg/mL | Tlast (time of last measured plasma concentration) [9, 13]: 38 ± 5 h | λz lower [9, 13]: 8 ± 4 h | λz upper [9, 13]: 38 ± 5 h | Clast (last measured plasma concentration) [9, 14]: 0.029 ± 0.003 µg/mL | Tlast (time of last measured plasma concentration) [9, 14]: 48 ± 0 h | λz lower [9, 14]: 11 ± 5 h | λz upper [9, 14]: 48 ± 0 h | Clast (last measured plasma concentration) ([9]; horses, i.v., 1 mg/kg, plasma): 0.538 ± 0.076 µg/mL | Tlast (time of last measured plasma concentration) ([9]; horses, i.v., 1 mg/kg, plasma): 48 ± 0 h | λz lower ([9]; horses, i.v., 1 mg/kg, plasma): 14 ± 5 h | λz upper ([9]; horses, i.v., 1 mg/kg, plasma): 48 ± 0 h | Plasma kinetics (order) ([9]; horses, i.v., 0.1 and 0.3 mg/kg): linear or first order plasma kinetics | clearance ([9]; plasma, iv, 0.1 mg/kg): 0.068 L/h/kg | clearance ([9]; plasma, iv, 0.3 mg/kg): 0.048 L/h/kg | AUC(0-inf) ([9]; plasma, iv, 1 mg/kg): 71.1 ± 5.78 µg·h/mL | clearance ([9]; plasma, iv, 1 mg/kg): 0.014 L/h/kg | half-life ([9]; plasma, iv, 1 mg/kg): 24 ± 5 h
Compound: O=C(Nc1ccc(OC(F)(F)F)cc1)N[C@H]1CC[C@H](Oc2ccc(C(=O)O)cc2)CC1 [t-TUCB, trans-4-{4-[3-(4-Trifluoromethoxy-phenyl)-ureido]-cyclohexyloxy}-benzoic acid]
In vitro 95% inhibitory concentration (IC95) ([3]; equine sEH): 0.0964 mg/L | Potency against equine sEH compared to rat sEH ([3]; in vitro, Wagner et al., 2013): approximately 3 fold | Carpus circumference compared to control ([4]; 1 mg/kg i.v., at 36 h): reaching statistical significance | Anti-inflammatory activity (inflammatory cell numbers, joint effusion, protein concentration) ([4]; 0.1-1 mg/kg i.v.): no important anti-inflammatory effects; also recorded: negligible anti-inflammatory activity | Carpus circumference compared to the remaining treatments ([4]; 0.3 and 1 mg/kg i.v.): increased slightly less | Adverse effects on physical and laboratory examinations ([6]; 0.03-1 mg/kg i.v.): No adverse effects were observed | Effect of treatment on respiratory rate, heart rate and mean arterial pressure ([6]; 0.1, 0.3 and 1 mg/kg i.v., after LPS): not of treatment | Hematology and serum biochemistry results ([6]; all treatments (0.03-1 mg/kg i.v.)): within the normal laboratory reference range | Mechanical hyperalgesia to intra-plantar LPS [7]: significantly attenuated | Horses qualifying for rescue analgesia if only VAS > 50 at rest had been used ([8]; 0.03 mg/kg i.v.): 5/6 | Proportion of positive-to-negative responses to touch (tactile allodynia) ([8]; 0.1 mg/kg i.v.): 0.8 | Horses qualifying for rescue analgesia if only VAS > 50 at rest had been used ([8]; 0.1 mg/kg i.v.): 4/6 | Proportion of positive-to-negative responses to touch (tactile allodynia) ([8]; 0.3 mg/kg i.v.): 1.3 | Horses qualifying for rescue analgesia if only VAS > 50 at rest had been used ([8]; 0.3 mg/kg i.v.): 1/4 | Proportion of positive-to-negative responses to touch (tactile allodynia) ([8]; 1 mg/kg i.v.): 0.2 | Horses qualifying for rescue analgesia if only VAS > 50 at rest had been used ([8]; 1 mg/kg i.v.): 2/5 | AUC of AAEP lameness scores compared to control ([8]; 1 mg/kg i.v.): significantly lower | AUC of visual analog pain scores compared to control ([8]; 1 mg/kg i.v.): significantly lower | AUC of AAEP lameness scores compared to control ([8]; 0.1 and 0.3 mg/kg i.v.): not the others | AUC of visual analog pain scores compared to control ([8]; 0.1 and 0.3 mg/kg i.v.): not the others | Plasma kinetics (order) ([9]; horses, i.v., highest dose (1 mg/kg)): may have approached a non-linear or zero order kinetics
